Results published in paper PMC9074879, “Solubilization, purification, and ligand binding characterization of G protein-coupled receptor SMO in native membrane bilayer using styrene maleic acid copolymer” (PeerJ, 2022).

Target: T1, Smoothened (SMO) (Homo sapiens, UniProt Q99835)
T1 construct: human SMO transmembrane domain (residues 190-555) fused with N-terminal 10-His tag and thermostabilized apocytochrome b562RIL, in SMA-nanodiscs
T1 sequence (Q99835 190-555): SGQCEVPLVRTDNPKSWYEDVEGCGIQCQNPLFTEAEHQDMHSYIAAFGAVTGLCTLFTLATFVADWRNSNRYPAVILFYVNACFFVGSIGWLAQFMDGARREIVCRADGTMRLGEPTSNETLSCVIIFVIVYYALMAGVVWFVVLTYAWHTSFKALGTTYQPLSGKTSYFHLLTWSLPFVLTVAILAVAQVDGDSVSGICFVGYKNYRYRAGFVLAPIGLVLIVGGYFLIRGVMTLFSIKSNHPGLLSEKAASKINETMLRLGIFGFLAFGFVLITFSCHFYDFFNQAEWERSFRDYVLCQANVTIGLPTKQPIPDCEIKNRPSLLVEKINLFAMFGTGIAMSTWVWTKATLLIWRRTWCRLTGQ
Assay: ligand-observed 1D 1H NMR titration (line broadening), purified SMO in SMA-nanodiscs
Type: binding

Row | Compound | Kd [nM]
1 | CN[C@H]1CC[C@H](N(Cc2cccc(-c3ccncc3)c2)C(=O)c2sc3ccccc3c2Cl)CC1 [SAG] | 15.9 ± 4.4
2 | Cc1nn(-c2ccccc2)c(C)c1/C=N/N1CCN(Cc2ccccc2)CC1 [SANT-1] | 2.3 ± 1.2
